Each compound was assayed against T1, nLucOGG1 in HeLa cells (Homo sapiens, UniProt O15527) (assay: Cellular Thermal Shift Assay to measure compound affinity for nLucOGG1 in HeLa cells (CETSA DTm)). Conditions: 10 μM compound, 37° C. 60 min, Tm vs DMSO control.
T1 construct: thermal shift read by NanoGlo luminescence
Assay type: cell-based
Experimental: Biological Example 2: Cellular Thermal Shift Assay to Measure Compound Affinity for ^nLucOGG1 in HeLa Cells (CETSA DTm)
Cell Culture and Transfection of Hela Cells with ^nLucOGG1: For all tests, Hela cells were maintained in growth medium, Dulbecco's Minimum Eagle Medium (Multicell: Cat #319-005-CL) supplemented with 10% heat-inactivated fetal bovine serum (Gibco: Cat #12484-028) at 37° C. and 5% CO2 in a humidified tissue culture incubator. Transient transfections were performed using the Lonza 4-D Nucleofector X unit according to the manufacturer's protocol (Lonza Cat #V4XC-1024). Briefly, for each transfection, 1.2×10^6 cells were centrifuged at 1000 RPM for 5 minutes at room temperature before being diluted in 100 μL SE solution containing 18% v/v supplement and 1.5 μg pNF1-N-empty or pNF1-N-OGG1a vector. The total volume was transferred to a 100 μL nucleofection cuvette prior to transfer to the apparatus where HeLa cell nucleofection protocol CN-114 was executed. Following nucleofection, 500 μL complete media was added to the cells in the cuvette before transferring to a 6-well dish containing 1.5 mL of complete media. Cells were left to incubate for 48 hours before performing all cellular thermal shift experiments.
Cellular Thermal Shift Assays for Target Engagement (CETSA): Forty-eight hours following nucleofection, cells were washed once with DPBS−/−(Multicell: Cat #311-425-CL) and lifted with 0.25% Trypsin-EDTA (Multicell: Cat #325-043-CL) prior to dilution in growth medium and centrifugation at 1000 RPM for 5 minutes at room temperature. The resulting cell pellet was then resuspended in growth medium, cells were counted and the volume adjusted to 500 k cells/mL (2×).
For delta Tm determination, OGG1 inhibitor compounds were dissolved in DMSO to a final working concentration of 20 mM. Working solutions were then diluted in complete media to 20 μM or 0.1% DMSO for the vehicle control (2×). 2×OGG1 inhibitor compound solutions or 0.1% DMSO control were then pre-dispensed into MicroAmp Optical 96-well PCR reaction plates (Applied Biosystems: Cat #4346906) at 50 μL/well. Next, 50 μL or 25 k cells/well from the 2× cell suspension was added to the pre-loaded PCR plates. All plates were prepared as duplicates, covered with adhesive plate sealers (Perkin Elmer: Cat #6050185) and left to incubate at 37° C. for 60 minutes. During incubation, sufficient NanoGlo luciferase assay reagents (Promega: Cat #N1120) were left to equilibrate to room temperature in the dark. Immediately before heating the plates, the NanoGlo substrate was mixed with the NanoGlo buffer at a 1:50 ratio. The thermal cycler (Veriti 96-Well Thermal Cycler, Thermo Fisher Scientific) was allowed to reach the designated temperature prior to placement of the PCR plate into the heating block. For Tm determination experiments, duplicate plates containing a fixed concentration of test compound (10 μM final) as well as vehicle control were prepared to perform a 12-point temperature gradient spanning 37-70° C. for 3 minutes. Therefore, two thermal cycler protocols were set up covering two 6-step temperature gradients ranging from 37-52° C. and 52-70° C. Plates were then allowed to cool at room temperature for 5 minutes after the heat treatment followed by transfer of 75 μL of the reaction into a 96-well white polystyrene microplate (Corning: Cat #CLS3903) and addition of 75 μL of the prepared NanoGlo mixture. Microplates were then left to shake in the dark for 5 minutes before total luminescence was measured on a SpectraMax IX3 plate reader. The luminescence value obtained at each temperature was normalized to the luminescence obtained at 37° C. and the ratio obtained was plotted against the temperature. A Boltzman Sigmoidal non-linear regression was applied to the resulting data to determine Tm values and the difference between the Tm value for a given OGG1 inhibitor relative to the DMSO vehicle control was the delta Tm.

T1 sequence (O15527 whole entry): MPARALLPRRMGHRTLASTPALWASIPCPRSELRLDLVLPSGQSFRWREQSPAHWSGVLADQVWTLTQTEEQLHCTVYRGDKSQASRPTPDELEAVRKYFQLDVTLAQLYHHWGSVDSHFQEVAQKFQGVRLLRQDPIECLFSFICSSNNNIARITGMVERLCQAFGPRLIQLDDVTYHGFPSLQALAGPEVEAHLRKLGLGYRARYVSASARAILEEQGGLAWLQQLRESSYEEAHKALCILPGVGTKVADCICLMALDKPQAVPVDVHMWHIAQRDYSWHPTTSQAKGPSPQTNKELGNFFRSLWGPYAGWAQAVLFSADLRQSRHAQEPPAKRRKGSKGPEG

ΔTm at 10 µM [°C]	Structure (SMILES)
8 to 10	COc1cc(NC(=O)[C@H]2CC[C@@H](N3Cc4c(C)cc(-c5nnco5)cc4NC3=O)CC2)ccc1C [Example 92, (1s,4s)-N-(3-methoxy-4-methylphenyl)-4-(5-methyl-7-(1,3,4-oxadiazol-2-yl)-2-oxo-1,2-dihydroquinazolin-3(4H)-yl)cyclohexanecarboxamide]
6 to 8	COc1ccc(NC(=O)[C@H]2CC[C@@H](N3Cc4c(C)ccc(OC)c4NC3=O)CC2)cc1Cl [Example 3, (1s,4s)-N-(3-Chloro-4-methoxyphenyl)-4-(8-methoxy-5-methyl-2-oxo-1,2-dihydroquinazolin-3(4H)-yl)cyclohexanecarboxamide]
6 to 8	COc1cc(NC(=O)[C@H]2CC[C@@H](N3Cc4c(C)cc(N(C)C)cc4C3=O)CC2)ccc1C [Example 135, (1s,4s)-4-(6-(Dimethylamino)-4-methyl-1-oxoisoindolin-2-yl)-N-(3-methoxy-4-methylphenyl)cyclohexane-1-carboxamide]
8 to 10	COc1ccc(NC(=O)[C@H]2CC[C@@H](N3Cc4c(C)cc(NCCN(C)C)cc4NC3=O)CC2)cc1C#N [Example 99, (1s,4s)-N-(3-cyano-4-methoxyphenyl)-4-(7-(2-(dimethylamino)ethylamino)-5-methyl-2-oxo-1,2-dihydroquinazolin-3(4H)-yl)cyclohexanecarboxamide]
8 to 10	COc1cc(NC(=O)[C@]2(C)CC[C@H](N3Cc4c(C)ccc(OC)c4NC3=O)CC2)ccc1C [Example 13, (1s,4s)-N-(3-Methoxy-4-methylphenyl)-4-(8-methoxy-5-methyl-2-oxo-1,2-dihydroquinazolin-3(4H)-yl)-1-methylcyclohexanecarboxamide]

Second part, the compound before the results:

Structure (SMILES)	ΔTm at 10 µM [°C]
COc1ccc(NC(=O)[C@H]2CC[C@@H](N3Cc4c(C)ccc(OC)c4NC3=O)CC2)cc1C#N [Example 2, (1s,4s)-N-(3-Cyano-4-methoxyphenyl)-4-(8-methoxy-5-methyl-2-oxo-1,2-dihydroquinazolin-3(4H)-yl)cyclohexanecarboxamide]	6 to 8
COc1ccc(NC(=O)[C@]2(C)CC[C@H](N3Cc4c(C)ccc(OC)c4NC3=O)CC2)cc1Cl (single isomer, unassigned) [Example 7, (1s,4s)-N-(3-chloro-4-methoxyphenyl)-4-(8-methoxy-5-methyl-2-oxo-1,2-dihydroquinazolin-3(4H)-yl)-1-methylcyclohexanecarboxamide]	8 to 10
COc1cc(NC(=O)[C@H]2CC[C@@H](N3Cc4c(C)ccc(CN)c4NC3=O)CC2)ccc1C [Example 58, (1s,4s)-4-(8-(aminomethyl)-5-methyl-2-oxo-1,2-dihydroquinazolin-3(4H)-yl)-N-(3-methoxy-4-methylphenyl)cyclohexanecarboxamide]	8 to 10
COc1ccc(NC(=O)[C@H]2CC[C@@H](N3Cc4c(C)cc(NCCN(C)C)cc4NC3=O)CC2)cc1C [Example 97, (1s,4s)-4-(7-(2-(dimethylamino)ethylamino)-5-methyl-2-oxo-1,2-dihydroquinazolin-3(4H)-yl)-N-(4-methoxy-3-methylphenyl)cyclohexanecarboxamide]	8 to 10
COc1ccc(NC(=O)[C@]2(C)CC[C@H](N3Cc4c(C)ccc(OC)c4NC3=O)CC2)cc1C#N (single isomer, unassigned) [Example 9, (1s,4s)-N-(3-cyano-4-methoxyphenyl)-4-(8-methoxy-5-methyl-2-oxo-1,2-dihydroquinazolin-3(4H)-yl)-1-methylcyclohexanecarboxamide]	8 to 10
COc1ccc(NC(=O)[C@]2(C)CC[C@H](N3Cc4c(C)cccc4NC3=O)CC2)cc1Cl (single isomer, unassigned) [Example 103, (1s,4s)-N-(3-chloro-4-methoxyphenyl)-1-methyl-4-(5-methyl-2-oxo-1,2-dihydroquinazolin-3(4H)-yl)cyclohexanecarboxamide]	8 to 10
COc1ccc(NC(=O)[C@H]2CC[C@@H](N3Cc4c(C)ccc(OC)c4NC3=O)CC2)cc1C [Example 4, (1s,4s)-N-(3-Methyl-4-methoxyphenyl)-4-(8-methoxy-5-methyl-2-oxo-1,2-dihydroquinazolin-3(4H)-yl)cyclohexanecarboxamide]	6 to 8
COc1cc(NC(=O)[C@H]2CC[C@@H](N3Cc4c(C)ccc(C#N)c4C3=O)CC2)ccc1C [Example 143, (1s,4s)-4-(7-Cyano-4-methyl-1-oxoisoindolin-2-yl)-N-(3-methoxy-4-methylphenyl)cyclohexanecarboxamide]	6 to 8
COc1ccc(NC(=O)[C@H]2CC[C@@H](N3Cc4c(C)ccnc4NC3=O)CC2)cc1C [Example 16, (1s,4s)-N-(4-Methoxy-3-methylphenyl)-4-(5-methyl-2-oxo-1,2-dihydropyrido[2,3-d]pyrimidin-3(4H)-yl)cyclohexanecarboxamide]	8 to 10

— patent US20260317356A1, “SMALL MOLECULE MODULATORS OF OGG1” (AZKARRA THERAPEUTICS, INC., priority 2023, published 2026)
